In patent publication US20080293699A1, “Inhibitors of thapsigargin-induced cell death” (priority 2007, published 2008):
“Also recorded” adds a separate entry of the source. Where two headings read alike, the source gives them in different places.

What was measured:
[1] = tested on: ASK1 (ser 967, ser 83, thr 845); assay: Phosphorylation of ASK1 sites in ASK1-transfected 293T cells (immunoblotting); format: cell-based; settings: ASK1-transfected 293T; for Phosphorylation of ASK1 at ser 967: 100 μM compound, two hours; for Phosphorylation of ASK1 at ser 83 and thr 845: up to 100 μM
Method: Phosphorylation of ASK1 at various sites was inspected. 293T cells were transfected with pcDNA-ASK1-HA. One day later, cells were incubated with DMSO (0.4%) or 100 μM compound 6239507 (#1) for two hours. Cell extracts were prepared using lysis buffer and were subjected to immunoblotting using anti-phospho ASK1 antibodies or anti HA antibody as indicated (A). The relative density of each phosphorylated ASK band was calculated by imageJ software (B). In (C), compounds from (A) were compared in activity against thapsigargin-induced cell death. […] (D) 293T cells were transfected with pcDNA-ASK1-HA and pEBG-GST-14-3-3. One day later cells were incubated with DMSO (0.4%) or 100 μM of the indicated compound for two hours. Then cells were treated with thapsigargin (20 μM) for the indicated time. Cell extracts were prepared using lysis buffer, and 14-3-3 proteins were immunoprecipitated with […] sepharose beads. ASK1 protein binding with 14-3-3 was visualized by immunoblotting using anti-HA antibody. Anti-phospho ASK1 (ser967) antibody was used to detect phosphorylation of ASK1 at each time point.
Thus, while not directly inhibiting ASK1 kinase activity, these events are predicted to reduce ASK1 in vivo kinase activity. It is possible that compound 5962123 inhibits a protein phosphatase that regulates phosphorylation of Ser967.
Suppression of thapsigargin-induced phosphorylation of p38MAPK was also measured by a quantitative ELISA-methods, with IC50 for p38MAPK phosphorylation estimated at <5 μM. In contrast, thapsigargin-induced expression of CHOP, expression of ATF4, proteolytic processing of ATF6, phosphorylation of eIF2a (Ser 51), auto-phosphorylation of Ire1a or auto-phosphorylation of ASK1 were not inhibited directly by CID-2878746 at concentrations up to 50 μM tested by in vitro kinase assay using p32-γ-ATP substrate. […] Thapsigargin-induced reductions in phosphorylation of ASK1 at the serine 967 site in ASK1 transfected 293T cells are inhibited by compound 5962123 at concentrations of 50-100 μM, as determined by immunoblotting using anti-phospho-specific (ser 967) antibody, but thapsigargin-induced changes in phosphorylation of ASK1 at ser 83 and thr 845 are not modulated by compound 5962123 at concentrations as high as 100 μM in ASK1-transfected HEK293T cells.
Experiments were also performed to determine whether compound 6239507 enhances phosphorylation of ASK1 at Ser 967 before and after ER stress induction (i.e., thapsigargin treatment). 293T cells were transfected with pcDNA-ASK1-HA. One day later, cells were incubated with DMSO (0.4%) or 100 μM compound 6239507 (#1) for two hours. Then cells were treated with thapsigargin (20 μM) for the indicated times. Cell extracts were prepared by lysis buffer and were subjected to immunoblotting with anti-phospho ASK1 Ser967 antibody or anti HA antibody. The relative density of phosphor ser967 bands were calculated by imageJ software (mean ±SD).
The ser 967 site of ASK1 is known to down-regulate ASK1 activity by phosphorylation (Goldman et al., J. Biol. Chem. 279:10442-10449, 2004) via 14-3-3 binding. […] 293T cells were transfected with pcDNA-ASK1-HA. One day later, cells were incubated with DMSO (0.4%) or 100 μM compound 6239507 (#1) for two hours. Cell extracts were prepared using lysis buffer and were subjected to immunoblotting using anti-phospho ASK1 antibodies or anti HA antibody as indicated. The relative density of each phosphorylated ASK band was calculated by imageJ software. The compounds were compared in activity against thapsigargin-induced cell death. 293T cells were transfected with pcDNA-ASK1-HA and pEBG-GST-14-3-3. One day later cells were incubated with DMSO (0.4%) or 100 μM of the indicated compound for two hours. Then cells were treated with thapsigargin (20 μM) for the indicated time. Cell extracts were prepared using lysis buffer, and 14-3-3 proteins were immunoprecipitated with […] sepharose beads. […]

CSM14.1 cells = assay: Primary HTS assay: ATP content (ATPlite) of undifferentiated CSM14.1 cells challenged with thapsigargin; format: cell-based, rat; settings: for IC50: thapsigargin-induced death of undifferentiated CSM14.1, ATP content; for Activity against thapsigargin-induced cell death / cell protection: cell death assay used for primary screening
Description: For convenience, and because transient reductions in temperature that might be associated with large screening experiments could restore Large T activity, we elected to develop our HTS using undifferentiated CSM14.1 cells, with the plan to then confirm hits using differentiated cells. For monitoring cell death, we used a commercially available bioluminescence reagent that determines intracellular ATP content, without requirement for complicated cell processing steps (ATPlite, Perkin Elmer). Thus, ATP was used as a surrogate indicator of cell survival for the primary assay.
Undifferentiated or differentiated CSM14.1 cells were plated at a density of 3,000 cells/well in 40 μL DMEM medium (containing 10% serum, 1 mM L-glutamine, and antibiotics) in 96 well flat-bottom microtiter plates composed of polystrene (Greiner Bio One, polystyrene, white wall, flat bottom, lumitrac, high binding). After overnight incubation at 32° C., DMSO (0.5% v/v) or 100 uM Salubrinal (Sal) in DMSO was delivered. After 2 hrs, 5 uL of a stock solution of 150 uM TG in DMEM medium containing 0.75% (v:v) DMSO to achieve a final concentration of approximately 15 uM. After culturing for 24 hrs, cellular ATP content was measured by addition of 20 uL per well of ATPlite solution (Perkin-Elmer), and then the plates were incubated for three minutes at room temperature, before reading with a Microplate Luminometer (BD Pharmingen Moonlight model 3096).
To determine the reproducibility of the ATP content assay, we prepared a 96-well plate in which half the wells received TG plus DMSO (assay minimum) and half received TG plus Salubrinal (assay maximum), then performed the ATP content studies using undifferentiated CSM14.1 cells (FIG. 6). CSM14.1 cells were cultured overnight at 3,000 cells per well in 96-well flat-bottom plates, then either DMSO (0.5% final concentration) or Salubrinal (100 μM) in DMSO (0.5% final concentration) was added to half the well (48 each). After two hrs, TG was added to all wells (15 μM final). Cells were cultured for 24 hrs, then the ATP content was measured using the ATPlite luminogenic assay. We then adapted this assay to the high-throughput environment, using a Biomex™ FX liquid handler for automated dispensing of assay components into microwells of 96-well plates. First, undifferentiated CSM14.1 cells were grown at 32° C. in DMEM medium supplemented with 10% fetal bovine serum (FBS), 1% penicillin/streptomycin, and 1% L-glutamine in 150 mm×25 mm polystyrene culture dishes to produce approximately 3×10^6 cells. Second, CSM14.1 cells were recovered from cultures by trypsinization when at 80-90% confluence, and suspended at 7.5×10^4 cells/mL in DMEM medium containing 2% FBS, 1 mM L-glutamine, and antibiotics 100 IU penicillin 100 μg/ml streptomycin. Third, the cell suspension was then delivered at 40 μL per well of 96-well plastic microtiter plates (Greiner Bio One, polystyrene, white wall, flat bottom, lumitrac, high binding, cat #655074), and the plates were cultured overnight at 32° C. in a humidified atmosphere in 95% air: 5% CO2. Fourth, using the automated liquid handler, 5 μL of test compounds in 10% DMSO were added to wells in columns 2-11 of the 96-well plates (leaving columns 1 and 12 intact) to achieve an approximate final concentration of 15 μg/mL test compound and a final concentration of 1% DMSO. Fifth, 5 μL of 1 mM Salubrinal in a solution of 10% DMSO:90% DMEM was added to wells of column 1/rows A-D of each plate, while 5 μL of 10% DMSO:90% DMEM solution was added to wells corresponding to column 1/rows E-H and to all wells in column 12. Sixth, the plates were returned to culture.

phospho-c-Jun = assay: Immunoblotting of thapsigargin-induced c-Jun phosphorylation in CSM14.1 cells; format: cell-based, rat; settings: immunoblotting with phospho-specific antibody, 10 μM, 25 μM hits
Description: After confirming the pathway selectivity of compounds, additional downstream assays can be performed to map the specific signal transduction pathway inhibited by the compounds. In this regard, various antibody reagents are commercially available for assessing the status of the three major pathways known to be activated by ER stress: (1) PERK, (2) Ire1, and (3) ATF6 (Xu et al., J. Clinical Invest., 115:2656-2664, 2005). Immunoblotting experiments can be performed to assess the expression or phosphorylation (using phospho-specific antibodies) of marker proteins in these pathways. […] CSM 14.1 cells were cultured with DMSO or with 25 μM of hit compounds for two hours, followed by treatment of thapsigargin (15 μM). Cell lysates were prepared and analyzed by SDS-PAGE/immunoblotting using antibodies specific for phospho-c-Jun, phospho-eIF2α, phospho-p38 MAPK, and tubulin (a loading control). CSM14.1 cells were cultured with either DMSO or one of the active compounds at 1, 5, and 10 μM, followed two hours later by 15 μM TG. After two hrs, cell lysates were prepared, normalized for protein content, and either analyzed by SDS-PAGE/immunoblotting using anti-p38-MAPK pan-reactive antibody or phospho-specific antibody with ECL-based detection, followed by densitometry analysis of x-ray films, normalizing phosphor-p38 MAPK relative to total p38 MAPK, or analyzed using a meso-scale instrument from MSD and a procedure in which total p38 MAPK is captured on plates, and the relative amounts of phosphorylated protein were determined using phospho-specific antibody (MSD catalog #K15112D1). […] Suppression of p38 MAPK and c-Jun phosphorylation was dose-dependent, and could not be explained by a decline in total levels of these proteins. […] Proteolytic processing of ATF6 was also not inhibited by our hit compounds. […] Screens of other libraries (such as the NIH compound collection) may yield cytoprotective compounds with different mechanisms.
1) CSM14.1 cells were plated at a density of 2×10^5 cells/well at 6 well dish (Greiner Bio one) in DMEM containing 2% FBS and antibiotics.
2) After overnight incubation, cells were treated by DMSO (0.5%) or compounds (25 μM) for two hours, followed by TG (15 uM) treatment.
3) After two hours, cells were lyzed in 250 uL of lysis buffer and subjected to protein concentration decision, and to SDS PAGE/Western blotting using antibodies specific for phospho p38 MAPK (Cell signaling 9211), p38 MAPK (Santa Cruz-C20), phospho c-Jun (Cell signaling 9164), c-Jun (Santa Cruz-SC 1694), phospho eIF2α (Cell signaling 3597) and α-tubulin.
CSM 14.1 cells were cultured with DMSO or with 25 μM of hit compounds for two hours followed by treatment with thapsigargin (15 μM). Cell lysates were prepared and analyzed by SDS-PAGE/immunoblotting using antibodies specific for: c-Jun, phosphor-c-Jun (ser 73), eIF2a, phosphor-eIF2a (ser 51), p38 MAPK, phosphor-p38 MAPK (Thr180/Tyr182), ATF-6, CHOP and tubulin (loading control). ER stress-induced activation of C-Jun and p38 MAPK is suppressed by the 11 hit compounds.
CSM cells were treated with two compounds at increasing doses. Pre-incubation time, thapsigargin treatment, cell extract preparation and immunoblotting protocols were as described previously.

[2] = first assay, read-out: IC50 (μM), first value
[3] = one value given, read-out: IC50
[4] = second assay (value in bold), read-out: IC50 (μM), value from a second assay

| SMILES | Phosphorylation of ASK1 at ser 967 [1] | Phosphorylation of ASK1 at ser 83 and thr 845 [1] | IC50 (CSM14.1 cells; [2]) | IC50 (CSM14.1 cells; [3]) | IC50 (CSM14.1 cells; [4]) | Thapsigargin-induced phosphorylation of c-Jun (phospho-c-Jun) | Activity against thapsigargin-induced cell death / cell protection (CSM14.1 cells) | IC50 (CSM14.1 cells; Rattus norvegicus, one value given, read-out: IC50) |
| --- | --- | --- | --- | --- | --- | --- | --- | --- |
| CCOc1cc(C2Nc3ccccc3NC3=C2C(=O)CC(c2ccc(OC)cc2)C3)cc(Cl)c1O (stereo not drawn) [Compound 6049448] | enhanced phosphorylation of ser 967 only | not ser 83 or thr 845 | 24.8 ± 2.03 µM | 23.7 ± 0.642 µM | 23.7 ± 0.642 µM | – | – | – |
| COc1ccc(C2CC(=O)C3=C(C2)Nc2ccccc2NC3c2cc(C)ccc2C)cc1 (stereo not drawn) [Compound 6238767] | enhanced phosphorylation of ser 967 only | not ser 83 or thr 845 | 13.3 ± 1.17 µM | 12.5 ± 0.177 µM | 12.5 ± 0.177 µM | – | – | – |
| CCCOc1ccc(C2Nc3ccccc3NC3=C2C(=O)CC(c2ccc(OC)c(OC)c2)C3)cc1 (stereo not drawn) [Compound 6237877] | – | – | 16.3 ± 0.439 µM | 12.5 ± 0.17 µM | 12.5 ± 0.17 µM | dose-dependent decrease | – | – |
| COc1ccc(C2CC(=O)C3=C(C2)Nc2ccccc2NC3c2cccc(O)c2)cc1 (stereo not drawn) [Compound 6048163] | – | – | – | > 200 µM | – | fail to suppress | inactive in cell protection; also recorded: not potent as an inhibitor of cell death | – |
| COc1ccc(C2CC(=O)C3=C(C2)Nc2ccccc2NC3c2ccncc2)cc1OC (stereo not drawn) [Compound 6075841] | – | – | – | > 200 µM | – | fail to suppress | inactive | – |
| COc1ccc(C2CC(=O)C3=C(C2)Nc2ccccc2NC3c2ccc(F)c(F)c2)cc1 (stereo not drawn) [Compound 6079090, 11-(3,4-difluorophenyl)-3-(4-methoxyphenyl)-2,3,4,5,10,11-hexahydro-1H-dibenzo[b,e][1,4]diazepin-1-one] | – | – | – | – | – | – | – | 21.7 ± 0.247 µM |
